Results from US8703947B2, “Compounds for treatment of Alzheimer's disease” (Purdue Research Foundation, priority 2008, dated 2014).

Columns and labels:
[1] = test system: Aβ production in Chinese hamster ovary cells that over-express human APP695 with the London and Swedish mutations; experiment: Cellular Aβ IC50 determination (Aβ40 sandwich ELISA); format: cell-based; conditions: Cricetulus griseus; Aβ40 content after 24 h incubation, CHO cells over-expressing human APP695
Method: Cellular Aβ IC50 Determinations. The potency of compounds against memapsin 2 catalytic activity was determined in a cellular assay of Aβ production. […] Chinese hamster ovary cells that over-express human APP695 with the London and Swedish mutations were seeded in multi-well plates at 10% confluency. Compounds are dissolved in DMSO to concentrations near 1 mM, and diluted into culture media to a final concentration near 4 μM (final 0.4% DMSO). Compounds were diluted serially and applied to cells in multi-well plates 48 h after seeding. Incubation was continued in 5% CO2 at 37 degrees C. for 24 h. Aliquots were removed and assayed for Aβ40 content using a sandwich ELISA (BioSource International). Amount of Aβ40 over the range of concentration of compounds, relative to control incubations, were fit to a 4-parameter IC50 model.

memapsin 2 = memapsin 2 (Homo sapiens (Human), UniProt P56817); experiment: Inhibition of memapsin 2 catalytic activity toward fluorogenic substrate FS-2; format: biochemical; conditions: memapsin 2, pH 4, 37° C., 20 minutes pre-incubation, tight-binding model
Method: Inhibition of Memapsin 1, Memapsin 2, and Cathepsin D Catalytic Activity. A substrate peptide H3N-ELDLAVEFWHDR—CO2 (SEQ ID NO:1) (used for inhibition assay of memapsin 2, memapsin 1, and cathepsin D) was dissolved at 2 mg/mL in DMSO and diluted 1:100 in 0.1 M sodium acetate, pH 4.0 just prior to assay. Inhibitor dissolved in DMSO was diluted into 0.1 M sodium acetate, pH 4.0 (1:100 dilution). A 50 μL aliquot of the inhibitor solution in pH 4 buffer was combined with 150 μL of 0.1 M sodium acetate containing 100-200 nM of memapsin 1, memapsin 2, or cathepsin D. Following a pre-incubation at 37° C., the proteolytic assay was initated by addition of 50 μl of the substrate diluted into pH 4 buffer, and incubation continued at 37° C. Aliquots were removed at time intervals, and combined with an equal volume of MALDI-TOF matrix ([…] in acetone, 20 mg/mL) and immediately spotted in duplicate onto a stainless-steel MALDI sample plate. MALDI-TOF mass spectrometry was performed on a PE Biosystems Voyager DE instrument at the Molecular Biology Resource Center on campus. The instrument was operated at 25,000 accelerating volts in positive mode with a 150 ns delay. Ions with a mass-to-charge ratio (m/z) were detected in the range of 650-2000 atomic mass units. Data were analyzed by the Voyager Data Explorer module to obtain ion intensity data for mass species of substrates and corresponding products in a given mixture. Relative product formation was calculated as the ratio of signal intensity of the product to the sum of signal intensities of both product and the corresponding substrate. Relative product formed per unit time was obtained from non-linear regression analysis of the data representing the initial 15% formation of product using the model: 1−e^−kT where k was the relative hydrolytic rate constant and T was time in seconds. Alternatively, relative hydrolytic rates were determined using a fluorogenic cleavage assay (Ermolieff, J. et al., Biochemistry, 39: 12450-12456 (2000)). Initial rates from either method were expressed relative to uninhibited controls and the inhibition constant Ki was determined by a non-linear fit to a tight-binding model of competitive inhibition (Bieth, J., Bayer—Symposium V. Proteinase Inhibitors, pp 463-469, Spinger-Varlag, Berlin (1994)). Results are shown in
Inhibition of Memapsin 2. The potencies of compounds were determined by measurement of their inhibition of memapsin 2 catalytic activity toward a fluorescent substrate. Kinetic inhibition experiments were performed using the procedure as described in Ermolieff, et al. Biochemistry 39:12450-12456 (2000), the teachings of which are incorporated hereby in their entirety. Briefly, assays were performed at pH 4, 37° C., by pre-incubation of memapsin 2 enzyme with compound for 20 minutes. Activity measure was initiated by addition of a fluorogenic substrate FS-2 (Bachem Americas, Torrance, Calif.). Fluorescent signal increase over time was measured as a rate of hydrolysis of the peptide substrate. Inhibition of hydrolytic rate was expressed relative to uninhibited controls and fit to a model for tight-binding inhibitors (J. Bieth, in “Proteinase Inhibitors,” Bayer Symposium V, 463-469, 1974).

memapsin 2, sequence (P56817 46-501): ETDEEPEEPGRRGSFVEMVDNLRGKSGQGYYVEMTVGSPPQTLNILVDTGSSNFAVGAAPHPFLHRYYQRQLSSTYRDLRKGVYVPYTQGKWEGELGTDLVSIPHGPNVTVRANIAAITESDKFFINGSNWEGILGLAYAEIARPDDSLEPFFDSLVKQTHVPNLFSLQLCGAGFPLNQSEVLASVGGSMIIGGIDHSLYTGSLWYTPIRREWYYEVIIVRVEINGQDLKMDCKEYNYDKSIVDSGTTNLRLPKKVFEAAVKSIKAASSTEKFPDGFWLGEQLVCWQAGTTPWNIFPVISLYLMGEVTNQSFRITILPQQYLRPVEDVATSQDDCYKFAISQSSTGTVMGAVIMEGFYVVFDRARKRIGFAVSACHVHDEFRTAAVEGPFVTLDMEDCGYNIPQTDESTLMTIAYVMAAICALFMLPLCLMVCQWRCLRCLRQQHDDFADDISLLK

Compound | IC50 [1] [nM] | Ki (memapsin 2) [nM]
Cc1nc(CN(C)C(=O)c2cccc(C(=O)N[C@@H](Cc3ccccc3)[C@H](O)C3NCCN(Cc4ccccc4)C3=O)c2)cs1 (single isomer, unassigned) [Example 11a] | < 10000 | < 1000
Cc1nc(CN(C)C(=O)c2cccc(C(=O)N[C@@H](Cc3ccccc3)[C@H](O)C3NCCN(Cc4ccccc4)C3=O)c2)cs1 (single isomer, unassigned) [Example 11b] |  | > 10000
COc1cccc(C[C@@H]2CC[C@H]([C@@H](O)CNC(=O)c3cc(C(=O)N[C@H](C)c4ccccc4)cc(N(C)S(C)(=O)=O)c3)N2C(=O)OC(C)(C)C)c1 [Comparison compound A, reference compound] |  | > 1000
COc1cccc(C[C@@H]2CC[C@H]([C@@H](O)CNC(=O)c3cc(C(=O)N[C@H](C)c4ccccc4)cc(N(C)S(C)(=O)=O)c3)N2)c1 [Comparison compound B, reference compound] |  | > 10000
C[C@@H](NC(=O)c1cc(C(=O)N[C@@H](Cc2ccccc2)[C@H](O)C2NCCN(Cc3ccccc3)C2=O)cc(N(C)S(C)(=O)=O)c1)c1ccccc1 (some centres unmarked) [Example 10] |  | < 10000
C[C@@H](NC(=O)c1cc(C(=O)N[C@@H](Cc2ccccc2)[C@H](O)C2Cc3ccccc3CN2)cc(N(C)S(C)(=O)=O)c1)c1ccccc1 (some centres unmarked) [GRL-0196-AL] |  | > 10000
Cc1csc([C@H]2CCCN2C(=O)c2cccc(C(=O)N[C@@H](Cc3ccccc3)[C@H](O)[C@@H]3NCCN(Cc4ccccc4)C3=O)c2)n1 [GRL-0299] |  | < 1000
Cc1csc([C@H]2CCCN2C(=O)c2cccc(C(=O)N[C@@H](Cc3ccccc3)[C@H](O)[C@@H]3NCCN(CC(C)C)C3=O)c2)n1 [GRL-0669AL] |  | < 1000
COc1ccc(CN2CCN[C@@H]([C@@H](O)[C@H](Cc3ccccc3)NC(=O)c3cccc(C(=O)N4CCC[C@@H]4c4nc(C)cs4)c3)C2=O)cc1 [GRL-0819AL] |  | < 1000
CC(C)CN1CCN[C@@H]([C@@H](O)[C@H](Cc2ccccc2)NC(=O)c2cc(C(=O)N[C@H](C)c3ccccc3)cc(N(C)S(C)(=O)=O)c2)C1=O [GRL-0849AL] |  | < 1000
COc1ccc(CN2CCN[C@@H]([C@@H](O)[C@H](Cc3ccccc3)NC(=O)c3cc(C(=O)N[C@H](C)c4ccccc4)cc(N(C)S(C)(=O)=O)c3)C2=O)cc1 [GRL-0889AL] |  | < 1000
COc1cccc(CN2CCN[C@@H]([C@@H](O)[C@H](Cc3ccccc3)NC(=O)c3cccc(C(=O)N4CCC[C@@H]4c4nc(C)cs4)c3)C2=O)c1 [GRL-1069AL] |  | < 1000
COc1cccc(CN2CCN[C@@H]([C@@H](O)[C@H](Cc3ccccc3)NC(=O)c3cc(C(=O)N[C@H](C)c4ccccc4)cc(N(C)S(C)(=O)=O)c3)C2=O)c1 [GRL-1079AL] |  | < 1000
